Experimental data from US20150322527A1, “TRANSCRIPTIONAL PROFILING AND BIOMARKER-BASED METHODS FOR IDENTIFYING AND EVALUATING AGENTS FOR ANTIOXIDANT EFFICACY IN COSMETIC SKIN CARE FORMULATIONS” (The Procter & Gamble Company, priority 2010, published 2015).

Tested on: Nrf2-mediated transcription off the antioxidant response element (ARE)
Assay: ARE activation assay (ARE32 luciferase reporter cell line)
Format: cell-based
Details: 24 hrs
Excerpt: An ARE reporter cell line may be developed and used to screen for compounds that increase transcription off the ARE in response to oxidative stress, resulting in an increase in cellular antioxidant defense proteins. An ARE32 reporter cell line was adapted to provide an assay for cosmetic agents which may increase transcription off the ARE and increase expression of Phase 2 enzymes, thus augmenting the body's own antioxidant response. ARE32 is a stable reporter cell line produced by CXR Biosciences by transfecting MCF7 cells with pGL8x-ARE (8 copies of the rat GST ARE linked to the luciferase gene) and pCDNA3.1 which contains the neomycin selectable marker. Selection is performed in the presence of G418 and resistant clones are isolated and screened for induction of luciferase. An exemplary standard is tert-butyl hydroquinone (tBHQ), a known activator of Nrf2. ARE32 is a stable MCF7 cell line containing pGL8x-ARE (8 copies of the rat GST ARE linked to the luciferase gene) and pCDNA3.1 which contains the neomycin selectable marker, which was licensed from CXRbiosciences. Selection was performed in the presence of G418 and resistant clones were isolated. Clones were screened for induction of luciferase in response to tBHQ. ARE32 cells are maintained routinely in the DMEM (phenol red free) containing: • 10% FBS • 50 units/ml penicillin & 50 μg/ml streptomycin • 0.8 mg/ml G418 • Cells are subcultured every 3-4 days. […] Induction of Luciferase with tBHQ • 1. In a 96 well-plate, seed 1×10^4 cells/well in 100 μl DMEM containing 50 units/ml penicillin, 50 μg/ml streptomycin, 0.8 mg/ml G418 and 10% FBS. • 2. Incubate the cells at 37° C. in a 5% CO2 incubator for 24 hrs. • 3. […] (10 mM tBHQ of stock solution was freshly prepared in DMSO) • 4. Add 100 ul of media after treatment, final assay volume 200 uL. • 5. Incubate the cells at 37° C. in CO2 incubator for another 24 hrs. • 6. Assay for luciferase activity with Steady-glo Assay System by following the manufacture's instruction: • a. Remove 100 μL of media • b. Add 100 μl of reconstituted substrate directly to well • c. Incubate 5-10 min shaking. • d. […] Read plate for 5 seconds per well. The ARE activation assay described in Example 3 is employed. To test for transcription off the antioxidant response element, the reporter line is grown, compounds are added, each compound in varying doses, and allowed to incubate for 24 hours. Cells are then lysed and luminescent output is detected and quantified. […] Proposed compounds are screened using the ARE assay set forth in Example 3, above. Table 4 illustrates “ARE screening hits” along with concentrations tested for each compound and the observed percent increase in ARE. […]

Row | Molecule | ARE (% control) (concentration tested 0.01%) | ARE (% control) (concentration tested 200 μM)
1 | Umbelliferin | 1815 % control | –
2 | CCCCCC/C=C/C#CCCCCCCCC(=O)O [Xymenynic acid] | – | 329 % control
3 | O=C(O)CCCCC1CCSS1 (stereo not drawn) [Alpha-lipoic acid] | – | 534 % control
4 | O=C(/C=C/c1ccc(O)c(O)c1)O[C@H](Cc1ccc(O)c(O)c1)C(=O)O [Rosmarinic acid] | – | 1211 % control
